Results from patent US20090233997A1, “COMPOSITION FOR PROMOTING SYNTHESIS OF COLLAGEN, AND COMPOSITION FOR EXTERNAL PREPARATION FOR SKIN COMPRISING THE SAME” (LG HOUSEHOLD & HEALTH CARE, LTD., priority 2003, published 2009).
≈ marks a conversion by molar mass, not a printed value. Where “and” joins values, the source holds several entries; their conditions need not be identical. Equal values may be shown once.

Legend:
human fibroblasts = assay: Collagen synthesis effect in human fibroblast culture (PICP EIA Kit); type: cell-based; details: for Quantity of Synthesized Collagen: cultured one day, 450 nm, n=6; for Increase Rate: relative ratio to collagen generation of control group
Description: The collagen synthesis effect of Xanthotoxol was tested by adding Xanthotoxol to a culture broth for human fibroblasts. The quantity of the synthesized collagen was assayed by using a Procollagen Type I C-Peptide Enzyme ImmunoAssay (PICP EIA) Kit.
Xanthotoxol solution aliquots having final concentrations of 0.5 μg/ml, 1 μg/ml, 2 μg/ml, 5 μg/ml, and 10 μg/ml were added to a culture media for human fibroblasts, and the fibroblasts were cultured for one day. The culture broth of each concentration was taken out and the quantity of synthesized collagen was measured with a spectrophotometer at 450 nm by using the PICP EIA Kit.
To compare the effect of collagen synthesis, the human fibroblasts were cultured in a culture medium to which no extra element was added (i.e., a control group) and in a culture medium to which vitamin C having a final concentration of 52.8 μg/ml was added, and the quantity of synthesized collagen was measured with respect to the two samples with the same method as above.
The quantity of generated collagen was measured by using an ultraviolet ray (UV) spectrophotometer, and the increase rate of collagen generation was calculated in a relative ratio with respect to the collagen generation quantity of the control group.
The quantity of synthesized collagen and the increase rate of collagen were measured with the same method as in Experimental Example 1, except that 8-hydroxybergapten was used instead of xanthotoxol.
The quantity of synthesized collagen and the increase rate of collagen were measured with the same method as in Experimental Example 1, except that prangenidin was used instead of xanthotoxol.

[1] = test system: skin wrinkles of hairless mice; assay: Anti-wrinkle effect on hairless mice with light-induced skin wrinkles; type: in vivo; details: 5 mg/ml in 1,3-butyleneglycol, treated 6 weeks, group of 10
Description: The anti-wrinkle effects of xanthotoxol, 8-hydroxybergapten, and prangenidin were tested with respect to 6-week-old hairless mice having skin wrinkles caused by radiating light. Samples were prepared by extracting xanthotoxol, 8-hydroxybergapten, and prangenidin in accordance with Examples 1 through 3 and dissolving them in 1,3-butyleneglycol to thereby prepare 5 mg/ml sample solutions.
The skin wrinkles were caused by radiating light of 2 Minimum Erythema Dose (MED) to hairless mice with a solar simulator, three days a week for 10 weeks. Then, the improvement was assayed based on quality with respect to a control group of hairless mice treated with 1,3-butyleneglycol and test groups of hairless mice treated with the 5 mg/ml samples for 6 weeks.
The extent of wrinkle improvement was determined with the naked bare eye and by photographing the areas treated with the samples. The test groups and the control group were compared and the result was determined in three steps: no improvement; some improvement; and remarkable improvement.

[2] = test system: ear edema of hairless mice; assay: Anti-inflammatory effect, ear swelling method (arachidonic acid); type: in vivo; details: 1 wt % in ethanol, 20 μl/ear, 2 mg/ear arachidonic acid, test ear vs controlled ear, group of 3
Description: The anti-inflammatory effect was evaluated in an ear swelling method by using 6-week-old hairless mice. The left ears of the hairless mice were used as controlled areas to be compared with the test areas, and the right ears of the hairless mice were used as the test areas. Prior to the test, both ears of all the hairless mice were measured three times. Sample solutions were prepared by extracting xanthotoxol, 8-hydroxybergapten, and prangenidin in accordance with […] and dissolving them in ethanol at 1 wt %, individually. Then, 20 μl/ear sample solutions were applied to the right ears of the hairless mice, and 20 μl/ear of ethanol was applied to the left ear thereof. An hour later, 2 mg/ear of arachidonic acid was applied to both ears of the hairless mice. After another hour had passed, the extent of ear edema was measured by using a micrometer, three times. Also, for comparison purposes, the anti-inflammatory effect of indomethacine, which is generally known as an anti-inflammatory agent, was measured with the same method.
The anti-inflammatory effect was a ratio of a thickness of an ear in the test area to the thickness of an ear in the controlled area. It was calculated based on the following Equation 1 and presented as a damage rate.
Damage rate (%)=(thickness of ear in test area/thickness of ear in controlled area)×100 Equation 1

incision wounds of rats = assay: Wound healing effect, tension stiffness method; type: in vivo; details: for Tensile Strength: 1 wt % in ethanol, 0.5 ml/cm^2 once every day for 6 days; for Strength Rate: relative to control group (ethanol only) taken as 100%
Description: A wound healing effect was tested with respect to 5-week-old male rats by using a tension stiffness method that reflects the quality and quantity of restoration from wounds. The backs of the rats were shaved and wounded with a scalpel, and then the incision was sutured. Sample solutions were prepared by extracting 8-hydroxybergapten and prangenidin in accordance with Examples 2 and 3, and dissolving them in ethanol at 1 wt %, individually. The sample solutions were injected into the incisions at 0.5 ml/cm^2 once every day for 6 days. After 6 days, the rats were sacrificed and the skin around the wounds was removed. Three skin specimens of 1 cm-wide skin flakes crossing the incision line were prepared for each individual and their tensile strength (g/cm) was measured by using a rheometer. The measured tensile strength was used as an index of the strength of the generated collagen fiber. The tensile strength of the control group, to which only ethanol without the sample therein was applied, was taken as 100% and the increase in the tensile strength was measured as a relative strength thereto.

[3] = Antioxidative effect in the DPPH scavenging method; details: 30 minutes, 517 nm
Description: The antioxidative effects of 8-hydroxybergapten and prangenidin were measured by using 1,1-diphenyl-2-picrylhydrazyl (DPPH). The radical scavenging activity of each sample was calculated by measuring an optical density (O.D.) at 517 nm with a spectrophotometer. Sample solutions were prepared by extracting samples, i.e., 8-hydroxybergapten and prangenidin, in accordance with the methods of Examples 2 and 3 and mixing the samples in concentrations of 3 μg/ml, 5 μg/ml, 10 μg/ml, 12 μg/ml, 50 μg/ml, 80 μg/ml, and 100 μg/ml, individually. Then, experimental solutions were prepared by mixing the 500 μl aliquots of the tested sample solutions with 500 μl of a 1.5×10^−4 M DPPH methanolic solution. The quantity of DPPH remaining in each experimental solution was measured 30 minutes after the preparation of experimental solutions by using the spectrophotometer at 517 nm. In order to subtract the inherent optical densities of the samples from the measurement values of the experimental solutions, the optical densities of the sample solutions of the same concentrations were also measured at 517 nm. A control solution was prepared by mixing 500 μl of a 1.5×10^−4 M DPPH methanolic solution with 500 μl of a methanol solution and using the mixture 30 minutes after the preparation. The radical scavenging activity of each sample was calculated based on the following Equation 2.
To determine the radical scavenging activity of each sample, a coefficient of correlation (R), which is a value in connection with the radical scavenging activity, was obtained, and an IC50, a value that scavenges DPPH by 50%, was calculated. Also, in order to compare the antioxidative effects, the same experiment was carried out with respect to vitamin C.

Row | Compound | Quantity of Synthesized Collagen (human fibroblasts; 0.5 μg/ml) [Abs] | Increase Rate (human fibroblasts; 0.5 μg/ml) [%] | Quantity of Synthesized Collagen (human fibroblasts; 1.0 μg/ml) [Abs] | Increase Rate (human fibroblasts; 1.0 μg/ml) [%] | Quantity of Synthesized Collagen (human fibroblasts; 2.0 μg/ml) [Abs] | Increase Rate (human fibroblasts; 2.0 μg/ml) [%] | Quantity of Synthesized Collagen (human fibroblasts; 5.0 μg/ml) [Abs] | Increase Rate (human fibroblasts; 5.0 μg/ml) [%] | Quantity of Synthesized Collagen (human fibroblasts; 10.0 μg/ml) [Abs] | Increase Rate (human fibroblasts; 10.0 μg/ml) [%] | No Improvement (number of mice) [1] | Remarkable Improvement (number of mice) [1] | Some Improvement (number of mice) [1] | Damage Rate [2] [%] | Tensile Strength (incision wounds of rats) [g/cm] | Strength Rate (incision wounds of rats) [%] | IC 50 (scavenges DPPH by 50%) [3] [µg/mL] | Quantity of Synthesized Collagen (human fibroblasts; 52.8 μg/ml) | Increase Rate (human fibroblasts; 52.8 μg/ml)
1 | COc1c2ccoc2c(O)c2oc(=O)ccc12 [8-Hydroxybergapten, 5-benzofuranacrylic acid and 6,7-dihydroxy-4-methoxy-, delta-lactone] | 1.590 ± 0.102 | 121.4 | 1.876 ± 0.097 | 143.2 | 1.949 ± 0.111 | 148.8 | 1.953 ± 0.132 | 149.1 | 2.008 ± 0.129 | 153.3 | 0 | 6 | 4 | 45 | 680 | 124 | 20.3 (≈ 87.4 µM) | – | –
2 | COc1ccc2c(c1)c(CC(=O)O)c(C)n2C(=O)c1ccc(Cl)cc1 [Indomethacine, indomethacine, reference compound] | – | – | – | – | – | – | – | – | – | – | – | – | – | 51 | – | – | – | – | –
3 | CC(C)=CCc1c2ccoc2c(O)c2oc(=O)ccc12 [Prangenidin, 5-Benzofuranacrylic acid, 6,7-dihydroxy-4-(3-methyl-2-butenyl)-delta-lactone] | 1.537 ± 0.099 | 115.6 | 1.778 ± 0.121 | 133.7 | 1.801 ± 0.135 | 135.4 | 1.813 ± 0.130 | 136.3 | 1.820 ± 0.204 | 136.8 | 1 | 4 | 5 | 40 | 663 | 121 | 21.6 (≈ 79.9 µM) | – | –
4 | O=C1O[C@H]([C@@H](O)CO)C(O)=C1O [Vitamin C, vitamin C, reference compound] | – | – | – | – | – | – | – | – | – | – | – | – | – | – | – | – | 8.43 (≈ 47.9 µM) | 1.598 ± 0.145 Abs and 1.757 ± 0.121 Abs and 1.739 ± 0.145 Abs | 141.57% and 134.1% and 130.8%
5 | O=c1ccc2cc3ccoc3c(O)c2o1 [Xanthotoxol, 8-hydroxypsoralen] | 1.449 ± 0.039 | 128.36 | 1.535 ± 0.078 | 135.94 | 1.623 ± 0.084 | 143.75 | 1.651 ± 0.130 | 146.24 | 1.657 ± 0.112 | 146.81 | 2 | 3 | 5 | 42 | 642 | 117 | 24.0 (≈ 119 µM) | – | –
